± gives the expanded uncertainty stated by the source.
How the values were obtained:
[1] = 101 kPa, Liquid; for viscosity: Concentric cylinders viscometry; for mass density: Vibrating tube method
[2] = xn = mol fraction of the nth substance listed; details: 101 kPa, Liquid, x2 = 0; for viscosity: Concentric cylinders viscometry; for mass density: Vibrating tube method

NCCNCCN [di(2-aminoethyl)amine]
[1]
Details	mass density [kg/m3]	viscosity [mPa·s]
293.15 K	951 ± 1	7.038 ± 0.28
303.15 K	942.3 ± 1	4.804 ± 0.19
313.15 K	933.8 ± 1	3.4 ± 0.14
323.15 K	925.5 ± 1	2.695 ± 0.11
333.15 K	917 ± 1	2.109 ± 0.086
343.15 K	908.9 ± 1	1.703 ± 0.069
353.15 K	900.4 ± 1	1.409 ± 0.057
363.15 K	891.9 ± 1	1.19 ± 0.049

O [water]
[1]
Details	mass density [kg/m3]	viscosity [mPa·s]
293.15 K	999.2 ± 1	1.006 ± 0.041
303.15 K	996.5 ± 1	0.7988 ± 0.033
313.15 K	993 ± 1	0.6546 ± 0.027
323.15 K	988.7 ± 1	0.5427 ± 0.023
333.15 K	983.7 ± 1	0.4596 ± 0.019
343.15 K	978.3 ± 1	0.4271 ± 0.018
353.15 K	972.3 ± 1	0.3731 ± 0.016
363.15 K	965.9 ± 1	0.2983 ± 0.013

O [water] + NCCNCCN
[2]
Details	mass density [kg/m3]	viscosity [mPa·s]
293.15 K	999.2 ± 1	1.006 ± 0.041
303.15 K	996.5 ± 1	0.7988 ± 0.033
313.15 K	993 ± 1	0.6546 ± 0.027
323.15 K	988.7 ± 1	0.5427 ± 0.023
333.15 K	983.7 ± 1	0.4596 ± 0.019
343.15 K	978.3 ± 1	0.4271 ± 0.018
353.15 K	972.3 ± 1	0.3731 ± 0.016
363.15 K	965.9 ± 1	0.2983 ± 0.013
